From PMC9841532, “Exploring the Effect of Halogenation in a Series of Potent and Selective A2B Adenosine Receptor Antagonists” (Journal of Medicinal Chemistry, 2022)
In brackets after ≈: the same amount, converted by molar mass. Like-named read-outs stand apart in the source and are kept apart here.

Legend:
hA1AR [1] = target: T1, hA1AR (Homo sapiens, UniProt P30542); test: Radioligand binding competition, [3H]DPCPX, membranes from CHO-A1 cells; settings: for % at 1 μM hA1 (percentage displacement of specific binding): [3H]DPCPX, human CHO cells, n = 2
T1 sequence (P30542 1-326): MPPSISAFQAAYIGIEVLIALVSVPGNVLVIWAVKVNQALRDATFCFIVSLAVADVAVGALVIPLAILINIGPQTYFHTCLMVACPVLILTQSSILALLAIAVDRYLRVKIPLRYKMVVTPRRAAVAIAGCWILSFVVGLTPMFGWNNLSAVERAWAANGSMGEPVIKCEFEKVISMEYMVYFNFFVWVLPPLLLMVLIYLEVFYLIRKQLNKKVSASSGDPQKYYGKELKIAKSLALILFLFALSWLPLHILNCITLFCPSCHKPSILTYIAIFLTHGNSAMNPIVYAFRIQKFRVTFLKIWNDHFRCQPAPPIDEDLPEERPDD
Procedure, shortened: (§1)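 Racemates, plus selected enantiomers after chiral resolution, were tested at 25 °C, with a 60 min incubation for one subtype and 30 min for others. Non-specific binding was defined with 10 μM or 100 μM R-PIA. Bound radioactivity was counted after washing and filtration.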

hA2AAR [2] = target: T2, hA2AAR (Homo sapiens, UniProt P29274); test: Radioligand binding competition, [3H]ZM241385, membranes from HeLa-A2A cells; settings: for % at 1 μM hA2A (percentage displacement of specific binding): [3H]ZM241385, human HeLa cells, n = 2
T2 construct: expressed in transfected cells; host or cells: HeLa (HeLa-A2A) cell membranes
Procedure, shortened: as §1

hA2BAR = target: T3, hA2BAR (Homo sapiens, UniProt P29275); test: Radioligand binding competition, [3H]DPCPX, membranes from HEK-293-A2B cells; set-up: Exp. dG: unit not given here; settings: for Ki: read-out: Ki hA2B; for Exp. dG: experimental binding free energy, Supplementary Table S3, unit not given (errors in kcal/mol)
T3 construct: host or cells: HEK-293 (HEK-293-A2B) cell membranes
T3 sequence (P29275 1-332): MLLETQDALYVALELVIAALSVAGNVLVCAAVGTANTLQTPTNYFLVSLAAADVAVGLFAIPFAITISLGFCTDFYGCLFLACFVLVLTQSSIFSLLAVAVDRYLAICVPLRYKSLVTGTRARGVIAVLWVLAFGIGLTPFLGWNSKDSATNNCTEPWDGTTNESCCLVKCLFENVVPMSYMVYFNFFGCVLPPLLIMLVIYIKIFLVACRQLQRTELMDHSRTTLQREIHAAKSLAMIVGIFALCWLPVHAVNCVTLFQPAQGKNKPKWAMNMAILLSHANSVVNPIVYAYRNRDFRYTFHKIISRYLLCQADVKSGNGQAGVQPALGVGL
Procedure, shortened: as §1

hA3AR [3] = target: T4, hA3AR (Homo sapiens, UniProt P0DMS8); test: Radioligand binding competition, [3H]NECA, membranes from HeLa-A3 cells; settings: 1 μM, [3H]NECA, human HeLa cells, n = 2
T4 construct: expressed in transfected cells; host or cells: HeLa (HeLa-A3) cell membranes
T4 sequence (P0DMS8 1-318): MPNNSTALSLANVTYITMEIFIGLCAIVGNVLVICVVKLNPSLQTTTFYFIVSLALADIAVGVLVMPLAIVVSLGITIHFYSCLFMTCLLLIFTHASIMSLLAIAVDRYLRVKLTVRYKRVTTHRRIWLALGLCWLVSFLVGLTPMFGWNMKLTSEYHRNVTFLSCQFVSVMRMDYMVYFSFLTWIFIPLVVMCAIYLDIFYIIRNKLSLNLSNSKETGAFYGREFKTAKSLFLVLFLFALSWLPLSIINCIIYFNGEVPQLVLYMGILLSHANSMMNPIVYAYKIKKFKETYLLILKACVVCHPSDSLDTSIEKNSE
Procedure, shortened: as §1

[4] = Solubility determination (nephelometry); type: physicochemical; settings: 1:99 DMSO/PSB buffer, PBS pH 7, 37 °C
Procedure: The solubility of selected compounds was evaluated by following a previously described method.[31] A 10 mM stock solution of the compound was serially diluted in 100% DMSO, and 2.5 μL of this solution was added to a 384-well UV-transparent plate (Greiner) containing 47.5 μL of PBS (pH = 7). The plate was incubated at 37 °C for 4 h, and the light scattering was measured in a NEPHELOstar Plus reader (BMG LABTECH). The data was fitted to a segmented linear regression for measuring the compound solubility.

[5] = Human microsomal stability; type: in vitro ADME; settings: human microsomes; for microsomal stability percent (percentage remanent): sampling time 60 min; for microsomal CLint at 1 h / half-life at 1 h: human, pH 7.4; for microsomal CLint at 1 h: read-out: microsomal stability Clint (intrinsic clearance); for half-life at 1 h: read-out: microsomal stability t1/2
Procedure: The human microsomal stability of selected compounds was evaluated by following a previously described method.[31] The human microsomes employed were purchased from Tebu-Xenotech. The compound was incubated with the microsomes at 37 °C in a 50 mM phosphate buffer (pH = 7.4) containing 3 mM MgCl2, 1 mM NADP, 10 mM glucose-6-phosphate, and 1 U/mL glucose-6-phosphate-dehydrogenase. Samples (75 μL) were taken from each well at 0, 10, 20, 40, and 60 min and transferred to a plate containing 4 °C 75 μL acetonitrile and 30 μL of 0.5% formic acid in water was added for improving the chromatographic conditions. The plate was centrifuged (46,000 g, 30 min), and supernatants were taken and analyzed in a UPLC-MS/MS (Xevo TQD, Waters) by employing a BEH C18 column and an isocratic gradient of 0.1% formic acid in water:0.1% formic acid acetonitrile (60:40). The metabolic stability of the compounds was calculated from the logarithm of the remaining compounds at each of the time point studied.

CYP3A4 = target: T5, CYP3A4 (Homo sapiens, UniProt P08684); test: CYP3A4 inhibition (fluorescence, substrates DBF or 7-BFC); type: biochemical; settings: for IC50: IC50 obtained by extrapolation with analysis software
T5 construct: host or cells: insect cell microsomes
Procedure: To identify potential metabolic liabilities within the series here documented, the selected A2BAR antagonists were tested in vitro for CYP3A4 inhibitory activity.
The inhibitory activity of selected compounds was evaluated by following a previously described method.[31] […] The plate was then pre-incubated at 37 °C for 5 min and the reaction initiated by the addition of a pre-warmed enzyme/substrate (E/S) mix. The E/S mix contained buffer (KH2PO4), c-DNA-expressed P450 in insect cell microsomes, substrate (DBF: dibenzylfluorescein or 7-BFC: 7-benzyloxy-4-trifluoromethyl-coumarin) and other components to give the final assay concentrations in a reaction volume of 200 μL. Reactions were terminated after various times (a specific time for each cytochrome) by addition of STOP solution (ACN/Tris–HCl 0.5 M 80:20, and NaOH 2 N for CYP3A4). Fluorescence per well was measured using a fluorescence plate reader (Tecan Infinite M1000 PRO), and percentage of inhibition was calculated. In silico predictions were performed using free web-based models (FAME 3, SmartCYP, and Xenosite).[62]−[64]

A2B = settings: cited from earlier work
hA1AR [6] = target: T1, hA1AR; settings: prototype series, [3H]DPCPX, human CHO cells ref 30, 31; cited from earlier work
hA2AAR [7] = target: T2, hA2AAR; settings: prototype series, human HeLa cells ref 30, 31; cited from earlier work
hA3AR [8] = target: T4, hA3AR; settings: prototype series, [3H]NECA, human HeLa cells ref 30, 31; cited from earlier work
[9] = displacement of specific [3H]DPCPX binding in human HEK-293 cells, n = 3
[10] = substrate 7-benzyloxy-4-trifluoromethyl-coumarin
[11] = substrate 7-benzyloxy-4-trifluoromethyl-coumarin, read-out: CYP3A4 IC50, 7-BFC
[12] = substrate dibenzylfluorescein, read-out: CYP3A4 IC50, DBF
[13] = Figure 1, representative A2B antagonists ref 28-32, read-out: Ki

T2 sequence (P29274 whole entry): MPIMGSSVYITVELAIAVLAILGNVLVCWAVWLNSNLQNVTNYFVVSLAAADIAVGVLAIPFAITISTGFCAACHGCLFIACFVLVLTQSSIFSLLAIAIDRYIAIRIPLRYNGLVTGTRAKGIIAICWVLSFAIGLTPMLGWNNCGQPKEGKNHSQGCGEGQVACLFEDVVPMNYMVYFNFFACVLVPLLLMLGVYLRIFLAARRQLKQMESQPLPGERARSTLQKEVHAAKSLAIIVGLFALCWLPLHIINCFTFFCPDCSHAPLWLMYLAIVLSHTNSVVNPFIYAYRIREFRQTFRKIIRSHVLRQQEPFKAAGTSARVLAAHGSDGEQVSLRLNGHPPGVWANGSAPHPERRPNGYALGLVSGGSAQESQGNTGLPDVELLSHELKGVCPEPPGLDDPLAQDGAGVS
T5 sequence (P08684 whole entry): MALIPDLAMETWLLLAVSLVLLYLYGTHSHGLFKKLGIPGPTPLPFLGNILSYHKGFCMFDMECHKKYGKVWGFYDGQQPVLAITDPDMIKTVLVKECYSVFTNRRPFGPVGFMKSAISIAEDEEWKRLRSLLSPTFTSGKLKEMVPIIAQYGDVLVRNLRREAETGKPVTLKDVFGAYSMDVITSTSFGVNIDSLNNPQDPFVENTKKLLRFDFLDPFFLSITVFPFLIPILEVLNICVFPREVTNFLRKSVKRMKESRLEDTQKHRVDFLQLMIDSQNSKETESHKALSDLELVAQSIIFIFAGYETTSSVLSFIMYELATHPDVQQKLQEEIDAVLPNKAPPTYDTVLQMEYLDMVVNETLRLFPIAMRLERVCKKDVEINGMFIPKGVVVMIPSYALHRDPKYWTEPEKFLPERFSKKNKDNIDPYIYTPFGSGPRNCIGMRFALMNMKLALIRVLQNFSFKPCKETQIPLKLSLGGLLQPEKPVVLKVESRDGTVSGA

## CC1=C(C(=O)OC(C)C)C(c2ccco2)n2c(nc3cc(F)c(F)cc32)N1 (centres unmarked) [14b]
hA1AR [1]
  % at 1 μM hA1 (percentage displacement of specific binding): 13%
hA2AAR [2]
  % at 1 μM hA2A (percentage displacement of specific binding): 22%
hA2BAR; [9]
  Ki: 11.9 ± 1.1 nM
hA3AR [3]
  % at 1 μM hA3 (percentage displacement of specific binding): 14%
[4]
  solubility at 4 h: 62 µM (≈ 23.1 µg/mL)
[5]
  microsomal stability percent (percentage remanent): 20.97%
  microsomal CLint at 1 h: 21.6 µL/min/mg
  half-life at 1 h: 28.9 min
CYP3A4; [10]
  CYP3A4 % inh. at 10 μM, 7-BFC: 58%
CYP3A4; substrate dibenzylfluorescein
  CYP3A4 % inh. at 10 μM, DBF: 39%

## CC1=C(C(=O)OC(C)C)C(c2ccco2)n2c(nc3ccc(Cl)cc32)N1 (centres unmarked) [15j]
hA1AR [1]; displacement of specific [3H]DPCPX binding in human CHO cells, n = 3, read-out: Ki hA1
  Ki: 667 ± 12 nM
hA2AAR [2]
  % at 1 μM hA2A (percentage displacement of specific binding): 17%
hA2BAR; [9]
  Ki: 44.3 ± 1.4 nM
hA2BAR
  Exp. dG: -10.03
hA3AR [3]
  % at 1 μM hA3 (percentage displacement of specific binding): 5%
[4]
  solubility at 4 h: 58.2 µM (≈ 21.6 µg/mL)
[5]
  microsomal stability percent (percentage remanent): 16.83%
  microsomal CLint at 1 h: 26.4 µL/min/mg
  half-life at 1 h: 21.1 min
CYP3A4; [10]
  CYP3A4 % inh. at 10 μM, 7-BFC: 11%
CYP3A4; substrate dibenzylfluorescein
  CYP3A4 % inh. at 10 μM, DBF: 47%
CYP3A4; [11]
  IC50: > 10000 nM
CYP3A4; [12]
  IC50: > 10000 nM

## CC1=C(C(=O)OC(C)C)C(c2ccoc2)n2c(nc3cc(Cl)ccc32)N1 (centres unmarked) [16l]
hA1AR [1]
  % at 1 μM hA1 (percentage displacement of specific binding): 27%
hA2AAR [2]; displacement of specific [3H]ZM241385 binding in human HeLa cells, n = 3, read-out: Ki hA2A
  Ki: 176 ± 4 nM
hA2BAR; [9]
  Ki: 6.1 ± 0.7 nM
hA2BAR
  Exp. dG: -11.2
  Ki: < 10 nM
hA3AR [3]
  % at 1 μM hA3 (percentage displacement of specific binding): 1%
[4]
  solubility at 4 h: 21.9 µM (≈ 8.14 µg/mL)
[5]
  microsomal stability percent (percentage remanent): 41.02%
  microsomal CLint at 1 h: 11.7 µL/min/mg
  half-life at 1 h: 44.8 min
CYP3A4; [10]
  CYP3A4 % inh. at 10 μM, 7-BFC: 44%
CYP3A4; [11]
  IC50: > 10000 nM
CYP3A4; [12]
  IC50: 6360 ± 1020 nM

## CC1=C(C(=O)OC(C)C)C(c2cocn2)n2c(nc3cc(F)ccc32)N1 (centres unmarked) [18b]
hA1AR [1]
  % at 1 μM hA1 (percentage displacement of specific binding): 29%
hA2AAR [2]
  % at 1 μM hA2A (percentage displacement of specific binding): 20%
hA2BAR; [9]
  Ki: 6.1 ± 0.3 nM
hA2BAR
  Exp. dG: -11.2
  Ki: < 10 nM
hA3AR [3]
  % at 1 μM hA3 (percentage displacement of specific binding): 20%
[4]
  solubility at 4 h: 64.6 µM (≈ 23 µg/mL)
[5]
  microsomal stability percent (percentage remanent): 35.15%
  microsomal CLint at 1 h: 12.8 µL/min/mg
  half-life at 1 h: 40.8 min
CYP3A4; [10]
  CYP3A4 % inh. at 10 μM, 7-BFC: 52%
CYP3A4; substrate dibenzylfluorescein
  CYP3A4 % inh. at 10 μM, DBF: 31%
CYP3A4; [12]
  IC50: > 10000 nM

## CCCn1c(=O)c2[nH]c(-c3cnn(Cc4cccc(C(F)(F)F)c4)c3)nc2n(CCC)c1=O [CVT-7124]
A2B; [13]
  Ki: 6 nM

## CCOC(=O)C1=C(C)Nc2nc3ccccc3n2C1c1ccoc1 (centres unmarked) [III]
hA2BAR
  Exp. dG: -10.48
hA1AR [6]
  % at 1 μM hA1 (percentage displacement of specific binding): 7%
hA2AAR [7]
  % at 1 μM hA2A (percentage displacement of specific binding): 11%
hA3AR [8]
  % at 1 μM hA3 (percentage displacement of specific binding): 1%

## CC1=C(C(=O)OC(C)C)C(c2ccoc2)n2c(nc3ccccc32)N1 (centres unmarked) [IV]
hA2BAR
  Exp. dG: -10.83
hA1AR [6]
  % at 1 μM hA1 (percentage displacement of specific binding): 12%
hA3AR [8]
  % at 1 μM hA3 (percentage displacement of specific binding): 2%

## CCOC(=O)C1=C(C)Nc2nc3ccccc3n2C1c1cocn1 (centres unmarked) [IX]
A2B; [13]
  Ki: 8.1 nM

## c1cncc(Nc2ncc(-c3ccncn3)c(-c3ccco3)n2)c1 [LAS38096, 4′-(2-Furyl)-N-Pyridin-3-Yl-4,5‘-Bipyrimidin-2‘-Amine]
A2B; [13]
  Ki: 17 nM

## CCCn1c(=O)[nH]c2nc(-c3ccc(S(=O)(=O)N4CCN(c5ccc(Br)cc5)CC4)cc3)[nH]c2c1=O [PSB-1901]
A2B; [13]
  Ki: 0.083 nM

## CC1=C(C(=O)OC(C)C)C(c2ccco2)NC(=S)N1 (centres unmarked) [SYAF030]
A2B; [13]
  Ki: 10.2 nM

## CCOC(=O)C1=C(C)Nc2nc3ccccc3n2C1c1cccs1 (centres unmarked) [V]
hA1AR [6]
  % at 1 μM hA1 (percentage displacement of specific binding): 8%
hA2AAR [7]
  % at 1 μM hA2A (percentage displacement of specific binding): 16%
hA3AR [8]
  % at 1 μM hA3 (percentage displacement of specific binding): 1%

## O=c1c(-c2ccccc2)nnc2n(-c3ccccc3)c3ccc(Cl)cc3n12 [compound 5]
A2B; [13]
  Ki: 1.4 nM

## CC(=O)[C@H]1CC[C@H]2[C@@H]3CCC4=CC(=O)CC[C@]4(C)[C@H]3CC[C@]12C [progesterone, reference compound]
[4]
  solubility at 4 h: 6.7 µM (≈ 2.11 µg/mL)

## C[C@]12CC[C@H]3[C@@H](CCC4=CC(=O)CC[C@@]43C)[C@@H]1CC[C@@H]2O [testosterone, reference compound]
[5]
  half-life at 1 h: 16.1 min

## PSB-603
A2B; Table 8 ref 28, read-out: hA2B Ki
  Ki: 0.553 nM
